The target of this assay is T1, AaeLOX4 (Cyclocybe aegerita, UniProt A0A4D6T4S4).
T1 construct: gene lox4; codon-optimized gene in pET28a, E. coli BL21(DE3) Gold; HisTrap and gel filtration, tag cleavage not mentioned; predicted 79 kDa
T1 sequence (A0A4D6T4S4 1-710): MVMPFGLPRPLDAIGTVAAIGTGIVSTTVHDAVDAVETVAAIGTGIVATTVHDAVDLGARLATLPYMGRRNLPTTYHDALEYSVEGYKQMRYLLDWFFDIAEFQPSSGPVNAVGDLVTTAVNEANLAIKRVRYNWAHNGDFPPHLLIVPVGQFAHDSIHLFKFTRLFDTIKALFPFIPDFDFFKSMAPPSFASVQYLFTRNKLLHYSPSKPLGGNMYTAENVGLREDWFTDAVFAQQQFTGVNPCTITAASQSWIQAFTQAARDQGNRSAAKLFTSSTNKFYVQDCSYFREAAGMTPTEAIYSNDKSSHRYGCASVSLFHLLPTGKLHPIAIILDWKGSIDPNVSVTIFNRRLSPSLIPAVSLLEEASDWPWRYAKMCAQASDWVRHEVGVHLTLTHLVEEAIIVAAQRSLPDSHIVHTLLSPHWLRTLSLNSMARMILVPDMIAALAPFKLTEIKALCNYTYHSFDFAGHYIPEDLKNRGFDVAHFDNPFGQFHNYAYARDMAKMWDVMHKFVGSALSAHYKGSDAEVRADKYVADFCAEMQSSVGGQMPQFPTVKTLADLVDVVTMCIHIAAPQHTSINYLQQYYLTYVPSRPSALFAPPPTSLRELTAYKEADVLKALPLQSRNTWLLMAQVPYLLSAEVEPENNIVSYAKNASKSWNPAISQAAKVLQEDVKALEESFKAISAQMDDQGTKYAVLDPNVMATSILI
Put plainly: conjugated diene formation at […] nm; Lineweaver-Burk. Type of assay: biochemical. Conditions: 50 mM phosphate pH 7.5, 25 °C; substrate dispersed with Tween 20; 0.025-2 mM.

Molecules are shown by their SMILES.

For orientation: Km means the concentration of substrate that gives half-maximal velocity. Regarding `CCCCC/C=C\C/C=C\CCCCCCCC(=O)O` [linoleic acid], the Km amounted to 295 µM.
The figure for `CC/C=C\C/C=C\C/C=C\CCCCCCCC(=O)O` [linolenic acid] is 634 µM.
